EP4722219A1 (Gan & Lee Pharmaceuticals Co., Ltd., priority 2023, dated 2024)

Assays:
Type in all cases: cell-based
[1] = target: T1, ERα (Homo sapiens, UniProt P03372); test: ERα degradation in T-47D cells (Western blot); settings: 4 hours
T1 sequence (P03372 1-595): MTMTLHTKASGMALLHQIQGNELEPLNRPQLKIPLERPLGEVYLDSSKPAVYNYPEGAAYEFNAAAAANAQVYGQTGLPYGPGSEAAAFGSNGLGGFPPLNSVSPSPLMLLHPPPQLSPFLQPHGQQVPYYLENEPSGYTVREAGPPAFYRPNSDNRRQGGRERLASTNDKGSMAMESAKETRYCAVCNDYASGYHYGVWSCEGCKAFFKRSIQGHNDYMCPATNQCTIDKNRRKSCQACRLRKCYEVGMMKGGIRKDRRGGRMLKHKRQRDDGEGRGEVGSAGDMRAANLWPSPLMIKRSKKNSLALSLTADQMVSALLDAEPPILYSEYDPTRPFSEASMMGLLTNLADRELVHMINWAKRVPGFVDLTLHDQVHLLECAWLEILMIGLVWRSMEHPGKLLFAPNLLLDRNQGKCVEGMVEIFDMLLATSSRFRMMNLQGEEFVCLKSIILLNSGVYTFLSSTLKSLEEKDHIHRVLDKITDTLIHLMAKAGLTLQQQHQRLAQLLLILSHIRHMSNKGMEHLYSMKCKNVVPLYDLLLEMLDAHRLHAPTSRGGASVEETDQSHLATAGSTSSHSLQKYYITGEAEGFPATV
Summary of the method: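 T-47D cells at 3×10^5 cells/well were exposed to compound (final 0.15-1000 nM, DMSO) for 4 hours at 37°C and then lysed in RIPA. ERα was measured by Western blot (20 µg protein) with infrared imaging. The degradation rate was calculated from ERα/internal-reference grayscale ratios relative to control.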

[2] = target: T1, ERα; test: ERα degradation in MCF-7 cells (Western blot); design: host or cells: MCF-7; settings: 4 hours
Summary of the method: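 MCF-7 cells treated 4 h at 37 °C with compound at 0.15–1000 nM final. ERα in lysates measured by Western blot (20 µg protein), normalized to an internal reference protein; degradation rate calculated against control.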

[3] = tested on: T-47D cells; test: Inhibition of cell proliferation in T-47D cells (CCK-8); settings: Homo sapiens, T47D, 144 h, 6 days treatment, CCK-8 cell viability
Summary of the method: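 T-47D cells (3,000/well) in RPMI-1640 with 10% FBS were exposed to a concentration range of PROTAC compounds for 6 days at 37 °C, 5% CO2. Viability read by CCK-8; IC50 fitted from inhibition rate.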

[4] = tested on: MCF-7 cells; test: Inhibition of cell proliferation in MCF-7 cells (CCK-8); settings: Homo sapiens, MCF7, 144 h, MCF-7 cell proliferation, 6 days treatment
Summary of the method: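 MCF-7 cells, 800 per well in DMEM plus 10% FBS, exposed to graded PROTAC concentrations for 6 days at 37 °C, 5% CO2. Viability by CCK-8; IC50 fitted from inhibition rates.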

Row | SMILES | Degradation rate of ERα in T-47D cells (%) ([1]; 1nM) | Degradation rate of ERα in T-47D cells (%) ([1]; 10nM) | Degradation rate of ERα in MCF-7 cells (%) ([2]; 1nM) | Degradation rate of ERα in MCF-7 cells (%) ([2]; 10nM) | IC50 [3] | IC50 [4]
1 | C[C@@H]1Cc2cc(O)ccc2C(c2c(F)cc(N3CCC4(CC3)CC(N3CCC5(CC3)CCC3(CC5)COc5c3ccc3c5CN(C5CCC(=O)NC5=O)C3=O)C4)cc2F)N1CC(F)F (stereo partly drawn) [ER-P-27, 3-(1"-(7-(4-((3R)-2-(2,2-difluoroethyl)-6-hydroxy-3-methyl-1,2,3,4-tetrahydroisoquinolin-1-yl)-3,5-difluorophenyl)-7-azaspiro[3.5]nonan-2-yl)-6-oxo-6,8-dihydro-2H,7H-dispiro[furo[2,3-e]isoindole-3,1'-cyclohexane-4',4"-piperidin]-7-yl)piperidine-2,6-dione] | 20% | 53% | 26% | 62% | 1.34 nM | < 0.256 nM
2 | O=C1CCC(N2Cc3c(ccc4c3OCC43CCC4(CC3)CN(C(=O)C3CCN(c5ccc([C@@H]6c7ccc(O)cc7CC[C@@H]6c6ccccc6)cc5)CC3)C4)C2=O)C(=O)N1 (stereo partly drawn) [ER-P-4, 3-(1-(1-(4-(((1R,2S)-6-hydroxy-2-phenyl-1,2,3,4-tetrahydronaphthalen-1-yl)phenyl)piperidine-4-carbonyl)-6'-oxo-6',8'-dihydro-2'H,7'H-diazetidine-3,1'-cyclohexane-4',3"-furo[2,3-e]isoindol]-7'-yl)piperidine-2,6-dione] | 21% | 54% | 9% | 20% | 3.63 nM | 92000 nM
3 | Cn1c(=O)n(C2CCC(=O)NC2=O)c2ccc3c(c21)OCC31CCN(CC2CCN(C(=O)C3CCN(c4ccc([C@@H]5c6ccc(O)cc6CC[C@@H]5c5ccccc5)cc4)CC3)CC2)CC1 (stereo partly drawn) [ER-P-63, 3-(1'-((1-(1-(4-((1R,2S)-6-hydroxy-2-phenyl-1,2,3,4-tetrahydronaphthalen-1-yl)phenyl)piperidine-4-carbonyl)piperidin-4-yl)methyl)-1-methyl-2-oxo-1,2-dihydro-3H,7H-spiro[benzofuro[6,7-d]imidazole-6,4'-piperidin]-3-yl)piperidine-2,6-dione] | 56% | 65% | 53% | 56% | 1.15 nM | 3750 nM
4 | O=C1CC[C@H](NC(=O)c2ccc3c(c2F)OCC32CCN(C3CCC4(CC3)CCN(c3ccc([C@@H]5c6ccc(O)cc6CC[C@@H]5c5ccccc5)cc3)CC4)CC2)C(=O)N1 [ER-P-39, N-((S)-2,6-dioxopiperidin-3-yl)-7-fluoro-1'-(3-(4-((1R,2S)-6-hydroxy-2-phenyl-1,2,3,4-tetrahydronaphthalen-1-yl)phenyl)-3-azaspiro[5.5]undecan-9-yl)-2H-spiro[benzofuran-3,4'-piperidine]-6-carboxamide] | -7% | -3% | -13% | -16% | 14.2 nM | 526 nM
5 | Cn1c(=O)n(C2CCC(=O)NC2=O)c2cc3c(cc21)C1(CCN(C2CCC4(CC2)CN(c2ccc([C@@H]5c6ccc(O)cc6CC[C@@H]5c5ccccc5)cc2)C4)CC1)CO3 (stereo partly drawn) [ER-P-59] | 40% | 63% | 14% | 18% | 0.96 nM | 0.875 nM
6 | O=C1CCC(N2Cc3c(ccc4c3OCC43CCC4(CC3)CN(CC3CCN(c5ccc([C@@H]6c7ccc(O)cc7CC[C@@H]6c6ccccc6)cc5)CC3)C4)C2=O)C(=O)N1 (stereo partly drawn) [ER-P-23, 3-(1-((1-(4-((1R,2S)-6-hydroxy-2-phenyl-1,2,3,4-tetrahydronaphthalen-1-yl)phenyl)piperidin-4-yl)methyl)-6"-oxo-6",8"-dihydro-2"H,7"H-di(pyridyl)furan[azetidine-3,1'-cyclohexane-4',3"-furo[2,3-e]isoindol]-7"-yl)piperidine-2,6-dione] | 40% | 67% | 26% | 48% | 1.61 nM | < 0.256 nM
7 | Cn1c(=O)n(C2CCC(=O)NC2=O)c2ccc3c(c21)OCC31CCN(C[C@H]2CC[C@@H](OC3CCN(c4ccc([C@@H]5c6ccc(O)cc6CC[C@@H]5c5ccccc5)cc4)CC3)CC2)CC1 (stereo partly drawn) [ER-P-54, 3-(1'-(((1S,4S)-4-((1-(4-((1R,2S)-6-hydroxy-2-phenyl-1,2,3,4-tetrahydronaphthalen-1-yl)phenyl)piperidin-4-yl)oxy)cyclohexyl)methyl)-1-methyl-2-oxo-1,2-dihydro-3H,7H-spiro[benzofuro[6,7-d]imidazole-6,4'-piperidin]-3-yl)piperidine-2,6-dione] | 67% | 81% | 50% | 76% | 0.15 nM | 1020 nM
8 | O=C1CCC(N2Cc3c(ccc4c3OCC43CCC4(CC3)CN(C3CCC5(CC3)CCN(c3ccc([C@@H]6c7ccc(O)cc7CC[C@@H]6c6ccccc6)cc3)CC5)C4)C2=O)C(=O)N1 (stereo partly drawn) [ER-P-9] | 46% | 83% | 30% | 71% | 1.96 nM | 7.44 nM
9 | O=C1CCC(Nc2ccc3c(c2)OCC32CCN(C[C@H]3CC[C@@H](OC4CCN(c5ccc([C@@H]6c7ccc(O)cc7CC[C@@H]6c6ccccc6)cc5)CC4)CC3)CC2)C(=O)N1 (stereo partly drawn) [ER-P-31, 3-((1'-(((1S,4s)-4-((1-(4-((1R,2S)-6-hydroxy-2-phenyl-1,2,3,4-tetrahydronaphthalen-1-yl)phenyl)piperidin-4-yl)oxy)cyclohexyl)methyl)-2H-spiro[benzofuran-3,4'-piperidin]-6-yl)amino)piperidine-2,6-dione] | 26% | 79% | 29% | 71% | 2.71 nM | 54.8 nM
